Reference: PubChem BioAssay AID624323 (Sanford-Burnham Center for Chemical Genomics, 2012)
≈ marks a conversion by molar mass, not a printed value. Calls of active or inactive are those of the source. No rule for the calls is given here.

Test system: aqueous buffer solubility, pH 5.0/6.2/7.4
Assay: compound solubility, pH 5.0, 6.2, 7.4 – biophysical, set 2, ADME assay (AID 624323)
Settings: at 100 µM, stronger effect = higher value
[1] = measured here: solubility at pH 5.0
[2] = measured here: solubility at pH 6.2

SMILES | solubility | solubility [1] [µg/mL] | solubility [2] [µg/mL]
CCc1oc2ccccc2c1C(=O)c1cc(Br)c(O)c(Br)c1 | > 42 µg/mL | 0.18 (≈ 0.424 µM) | 26.1 (≈ 61.5 µM)
Cc1ccc(-n2c(N)c(C#N)c(-c3ccccc3)c(C#N)c2=O)cc1 | 0.84 µg/mL (inactive) (≈ 2.57 µM) | 0.79 (≈ 2.42 µM) | 0.93 (≈ 2.85 µM)
N#Cc1ccccc1CSc1nc2ncc(Br)cc2[nH]1 | 0.54 µg/mL (inactive) (≈ 1.56 µM) | 0.42 (≈ 1.22 µM) | 0.52 (≈ 1.51 µM)
Oc1cc(O)cc(/C=C/c2ccc(O)c(O)c2)c1 | 10.1 µg/mL (≈ 41.4 µM) | > 24 | > 24
CCN1CCN(c2nc3ccccc3nc2C(C#N)C(=O)OC2CCCCC2)CC1 (stereo not given) | 25.8 µg/mL (≈ 63.3 µM) | > 40 | > 40
CCCn1ncc(CN2CCCC(C(=O)c3cccc(OC(C)C)c3)C2)c1C (stereo not given) | > 38 µg/mL | > 38 | > 38
O=C(O)CCC(NS(=O)(=O)c1ccc(-c2ccccc2)cc1)C(=O)O (stereo not given) | > 36 µg/mL | > 36 | > 36
Cc1ccnc(NC(=O)CCCOc2cc(=O)n(C)c3ccccc23)c1 | 9.1 µg/mL (inactive) (≈ 25.9 µM) | 19 (≈ 54.1 µM) | 9.3 (≈ 26.5 µM)
CC(=O)c1ccc(N2CCN(S(=O)(=O)c3ccc4c(c3)CC(=O)N4)CC2)cc1 | 3.5 µg/mL (inactive) (≈ 8.76 µM) | 3.2 (≈ 8.01 µM) | 3.7 (≈ 9.26 µM)
CCCC(=O)Nc1cccc(NC(=O)c2ccccc2Br)c1 | > 36 µg/mL | > 36 | > 36
COC(=O)c1ccccc1NC(=O)c1ccc(F)cc1 | 0.69 µg/mL (inactive) (≈ 2.53 µM) | 0.85 (≈ 3.11 µM) | 0.9 (≈ 3.29 µM)
O=S(=O)(NC1CCCCC1N1CCOCC1)c1ccc(Cl)cc1 (stereo not given) | 26.2 µg/mL (≈ 73 µM) | > 36 | > 36
Cc1cc(-c2nnc3n2CCCCC3)c(C)n1-c1ccccc1 | > 30 µg/mL | > 30 | > 30
Cn1cnc([N+](=O)[O-])c1Sc1ncnc2nc[nH]c12 | > 27 µg/mL | > 27 | > 27
CCCc1cc(C(=O)N(C2CCCCC2)C2CCCCC2)no1 | 1.3 µg/mL (inactive) (≈ 4.08 µM) | 2.1 (≈ 6.59 µM) | 2 (≈ 6.28 µM)
CN(C)c1oc(-c2ccc(OCc3ccc(Cl)cc3)cc2)nc1C#N | 0.08 µg/mL (inactive) (≈ 0.226 µM) | 0.17 (≈ 0.48 µM) | < 0.01
COc1ccc(C2CC(c3ccccc3)=NN2c2ccc(S(N)(=O)=O)cc2)cc1 (stereo not given) | 0.05 µg/mL (inactive) (≈ 0.123 µM) | 0.06 (≈ 0.147 µM) | 0.04 (≈ 0.0982 µM)
O=c1oc2c(O)c(O)cc3c(=O)oc4c(O)c(O)cc1c4c23 | > 30 µg/mL | 7.9 (≈ 26.1 µM) | > 30
O=c1[nH]c2c(s1)C(c1cccnc1)C1C3CCC(C3)C1S2 (stereo not given) | 21.7 µg/mL (≈ 68.6 µM) | 24 (≈ 75.8 µM) | 21.8 (≈ 68.9 µM)
Cc1cc(C)nc(-n2nc(C)c(Sc3ccc(F)cc3)c2N)n1 | 9.3 µg/mL (inactive) (≈ 28.2 µM) | 5.6 (≈ 17 µM) | 8.6 (≈ 26.1 µM)
COc1nc(-c2ccccc2)nnc1-c1ccccc1 | 0.38 µg/mL (inactive) (≈ 1.44 µM) | 1 (≈ 3.8 µM) | 0.78 (≈ 2.96 µM)
NC(=O)C1CCN(c2nc(-c3ccc(Br)cc3)cs2)CC1 | 0.12 µg/mL (inactive) (≈ 0.328 µM) | 0.14 (≈ 0.382 µM) | 0.14 (≈ 0.382 µM)
COc1ccc(S(=O)(=O)N2CCN(S(=O)(=O)c3ccc4c(c3)OCCO4)CC2)cc1 | < 0.1 µg/mL (inactive) | 0.13 (≈ 0.286 µM) | < 0.1
Cc1ccc(S(=O)(=O)n2c(N)nc3ccccc32)cc1 | 2.4 µg/mL (inactive) (≈ 8.35 µM) | 2.3 (≈ 8 µM) | 2.4 (≈ 8.35 µM)
O=C(c1ccccn1)N(Cc1cccs1)C1(C(=O)NC2CCCCC2)CCCCC1 | 22.7 µg/mL (≈ 53.3 µM) | 7.4 (≈ 17.4 µM) | 15 (≈ 35.2 µM)
